Test results as given in patent publication US11078170B2 (Assembly Biosciences, Inc., priority 2017, dated 2021).

What follows are molecules tested on HBV viral production from HepAD38 cells (assay: Activity of test compounds on viral production from HepAD38 cells (viral load by qPCR of HBV core sequence in supernatant)). Details: Hepatitis B virus, 120 h, 5 days incubation, HBV DNA in supernatant by qPCR, top concentration 10 μM, read-out: Viral Load EC50 Activity range.
Assay type: cell-based
Protocol: Assay Measuring Activity of Test Compounds on Viral Production from HepAD38 Cells
HepAD38 cells grown in a T-150 flask (Corning, cat #: 430825) with Growth Medium (DMEM/F12 (1:1) (Hyclone, cat #: SH30023.02), 1×Pen/Strep (Invitrogen, cat #: 15140-122), 10% FBS (Tissue Culture Biologics, cat #: 101), 250 μg/mL G418 (Alfa Aesar, cat #: J62671), 1 μg/mL Tetracycline (Teknova, cat #: T3320)) were detached with 0.25% trypsin-EDTA (Invitrogen, cat #: 25200-056). Tetracycline-free treatment medium (15 mL DMEM/F12 (1:1) 1× Pen/step, with 2% FBS, Tet-system approved (Clontech, cat #: 631106) were then added to mix, transferred into a 50 ml conical tube (Falcon, cat #: 21008-918) and spun at 1300 rpm for 5 min. Pelleted cells were then re-suspended/washed with 50 mL of 1×DPBS (Invitrogen, cat #: 14190-136) 2 times and 50 mL treatment medium twice. HepAD38 cells were then re-suspended with 10 mL of treatment medium, syringed and counted. Wells of 96-well clear bottom TC plate (Corning, cat #: 3904) were seeded at 50,000 cells/well in 180 μL of treatment medium, and 20 μL of either 10% DMSO (Sigma, cat #: D4540) as controls or a 10× solution of test compounds in 10% DMSO in treatment media was added for a final compound concentration starting at 10 μM, and plates were incubated in 5% CO2 incubator at 37° C. for 5 days.
Subsequently viral load production was assayed by quantitative PCR (qPCR) of the HBV core sequence. PCR reaction mixture containing forward primers HBV-f 5′-CTGTGCCTTGGGTGGCTTT-3′, which is SEQ ID NO 1, (IDT DNA), Reverse primers HBV-r 5′-[…]-3′, which is SEQ ID NO 2 (IDT DNA), Fluorescent TaqMan™ Probes HBV-probe 5′-FAM/AGCTCCAAA/ZEN/[…]/3IABkFQ-3′ (IDT DNA), which is SEQ ID NO 3, 10 μL/well of PerfeCTa® qPCR ToughMix® (Quanta Biosciences, Cat #: 95114-05K), and 6 µL/well of DEPC water (Alfa Aesar, cat #: J62087) was prepared. Four μL of supernatant was added to 16 μL of the reaction mixture in a qPCR plate (Applied Biosytems, Cat #: 4309849), sealed with a film (Applied Biosystems, Cat #: 4311971), centrifuged for a few seconds, and subsequently run on an Applied Biosystems VIIA7. The PCR mixture was incubated at 45° C. for 5 min, then 95° C. for 10 min, followed by 40 cycles of 10 seconds at 95° C. and 20 seconds at 60° C. Viral load was quantified against known HBV DNA standards by using ViiA™ 7 Software. Viral load in the supernatant from wells with treated cells were compared against viral load in supernatant from DMSO control wells (≥3 per plate). Cell viability assay was performed with CellTiter-Glo Luminescent Cell Viability Assay (Promega, cat #: G7573) with modification. Mixed appropriate amount of CellTiter-Glo (CTG) 1×DPBS in a 1:1 ratio, added 100 uL of the mixture to each well followed completely removal of all supernatant in each well without touching cell surface. Incubated the plate at room temperature for 10 min on an orbital shaker, and then read the plate with a plate reader (TECAN M1000 or Envision). EC50 or CC50 values were calculated through curve-fitting of the four-parameter nonlinear-logistic-regression model (GraphPad Prism or Dotmatics). CC50 values were all >10 μM.
Molecule `CN1[C@H](C(=O)Nc2ccc(F)c(Cl)c2)C[C@H](c2ncc(-c3ccccc3)s2)NS1(=O)=O` has an EC50 of less than 1000 nM.
Molecule `Cc1ncc([C@@H]2C[C@H](C(=O)Nc3ccc(F)c(Cl)c3)N(C)S(=O)(=O)N2)s1` [HBV-CSU-224-ISO-II, Cis-N-(3-Chloro-4-fluorophenyl)-2-methyl-5-(2-methylthiazol-5-yl)-1,2,6-thiadiazinane-3-carboxamide 1,1-dioxide] has an EC50 greater than 5000 nM.
`CN1[C@@H](C(=O)Nc2ccc(F)c(Cl)c2)C[C@@H](c2ccc(C(N)=O)cc2)NS1(=O)=O` [HBV-CSU-214-ISO-I, Cis-5-(4-Carbamoylphenyl)-N-(3-chloro-4-fluorophenyl)-2-methyl-1,2,6-thiadiazinane-3-carboxamide 1,1-dioxide] was tested, and the EC50 was greater than 5000 nM.
`CN1[C@@H](C(=O)Nc2ccc(F)c(Cl)c2)C[C@@H](c2cnc(-c3ccccc3)s2)NS1(=O)=O` [HBV-CSU-235-ISO-II, N-(3-Chloro-4-fluorophenyl)-2-methyl-5-(2-phenylthiazol-5-yl)-1,2,6-thiadiazinane-3-carboxamide 1,1-dioxide] was tested, and the EC50 was greater than 5000 nM.
For `[2H]C1[C@]([2H])(c2ccc(Br)s2)NS(=O)(=O)N(C([2H])([2H])[2H])[C@]1([2H])C(=O)Nc1ccc(F)c(Cl)c1` (stereo in doubt) [HBV-CSU-372-ISO-I, Cis-5-(5-bromothiophen-2-yl)-N-(3-chloro-4-fluorophenyl)-2-(methyl-d3)-1,2,6-thiadiazinane-3,4,5-d3-3-carboxamide 1,1-dioxide], the EC50 was less than 1000 nM.
Work on `C[C@@H]1C[C@H](C(=O)Nc2ccc(F)c(Cl)c2)N(C)S(=O)(=O)N1` [HBV-CSU-050-ISO-II, Cis-N-(3-chloro-4-fluorophenyl)-2,5-dimethyl-1,2,6-thiadiazinane-3-carboxamide 1,1-dioxide] yielded an EC50 greater than 5000 nM.
Work on `CN1[C@H](C(=O)Nc2ccc(F)c(Cl)c2)C[C@H](c2ncc(-c3ccn(C)n3)s2)NS1(=O)=O` (stereo in doubt) [HBV-CSU-280-ISO-I, Cis-N-(3-Chloro-4-fluorophenyl)-2-methyl-5-(5-(1-methyl-1H-pyrazol-3-yl)thiazol-2-yl)-1,2,6-thiadiazinane-3-carboxamide 1,1-dioxide] yielded an EC50 of 1000 to 5000 nM.
With `CN1[C@@H](C(=O)Nc2ccc(F)c(Cl)c2)C[C@@H](c2cc(-c3cncs3)cs2)NS1(=O)=O` [HBV-CSU-286-ISO-II, Cis-N-(3-Chloro-4-fluorophenyl)-2-methyl-5-(4-(thiazol-5-yl)thiophen-2-yl)-1,2,6-thiadiazinane-3-carboxamide 1,1-dioxide] the EC50 was 1000 to 5000 nM.
`COCCN1[C@H](C(=O)Nc2ccc(F)c(Cl)c2)C[C@H](c2cccs2)NS1(=O)=O` [HBV-CSU-025-ISO-II, Cis-N-(3-chloro-4-fluorophenyl)-2-(2-methoxyethyl)-5-(thiophen-2-yl)-1,2,6-thiadiazinane-3-carboxamide 1,1-dioxide] showed an EC50 of less than 1000 nM.
In the case of `N#CCN1C(C(=O)Nc2ccc(F)c(Cl)c2)CC(c2nccs2)NS1(=O)=O` (racemic) [HBV-CSU-093, Cis-N-(3-Chloro-4-fluorophenyl)-2-(cyanomethyl)-5-(thiazol-2-yl)-1,2,6-thiadiazinane-3-carboxamide 1,1-dioxide], the EC50 is reported as greater than 5000 nM.
`CN1C(C(=O)Nc2ccc(F)c(Cl)c2)CC(c2ncc(-c3ccn(C)n3)s2)NS1(=O)=O` (racemic) [HBV-CSU-280, Cis-N-(3-Chloro-4-fluorophenyl)-2-methyl-5-(5-(1-methyl-1H-pyrazol-3-yl)thiazol-2-yl)-1,2,6-thiadiazinane-3-carboxamide 1,1-dioxide] gave an EC50 of less than 1000 nM.
Molecule `CN1C(C(=O)Nc2ccc(F)c(Cl)c2)CC(c2ccc(F)c(F)c2)NS1(=O)=O` (racemic) [HBV-CSU-230, Cis-N-(3-Chloro-4-fluorophenyl)-5-(3,4-difluorophenyl)-2-methyl-1,2,6-thiadiazinane-3-carboxamide 1,1-dioxide] has an EC50 of less than 1000 nM.
Molecule `CN1[C@@H](C(=O)Nc2ccc(F)c(Cl)c2)C[C@H](c2ccc(-c3cn(C)cn3)s2)NS1(=O)=O` [HBV-CSU-266-Trans-ISO-I, (3R,5R)-N-(3-chloro-4-fluorophenyl)-2-methyl-5-(5-(1-methyl-1H-imidazol-4-yl)thiophen-2-yl)-1,2,6-thiadiazinane-3-carboxamide 1,1-dioxide] has an EC50 of less than 1000 nM.
With `COCCN1C(C(=O)Nc2ccc(F)c(Cl)c2)CC(c2ccc(F)cc2)NS1(=O)=O` (racemic) [HBV-CSU-210, Cis-N-(3-Chloro-4-fluorophenyl)-5-(4-fluorophenyl)-2-(2-methoxyethyl)-1,2,6-thiadiazinane-3-carboxamide 1,1-dioxide] the EC50 was less than 1000 nM.
Work on `CN1C(C(=O)Nc2ccc(F)c(Cl)c2)CC(c2cc(Br)cs2)NS1(=O)=O` (centres unmarked) [HBV-CSU-146, 5-(4-Bromothiophen-2-yl)-N-(3-chloro-4-fluorophenyl)-2-methyl-1,2,6-thiadiazinane-3-carboxamide 1,1-dioxide] yielded an EC50 of less than 1000 nM.
For `[2H]C1[C@]([2H])(C(=O)Nc2ccc(F)c(Cl)c2)N(C)S(=O)(=O)N[C@]1([2H])c1ncc(-c2cn(C([2H])([2H])[2H])cn2)s1` (stereo in doubt) [HBV-CSU-341-ISO-II, Cis-N-(3-Chloro-4-fluorophenyl)-2-methyl-5-(5-(1-(methyl-d3)-1H-imidazol-4-yl)thiazol-2-yl)-1,2,6-thiadiazinane-3,4,5-d3-3-carboxamide 1,1-dioxide], the EC50 was 1000 to 5000 nM.
In the case of `Cc1nn(C)cc1-c1ccc([C@@H]2C[C@H](C(=O)Nc3ccc(F)c(Cl)c3)N(C)S(=O)(=O)N2)s1` [HBV-CSU-313-ISO-II, Cis-N-(3-chloro-4-fluorophenyl)-5-(5-(1,3-dimethyl-1H-pyrazol-4-yl)thiophen-2-yl)-2-methyl-1,2,6-thiadiazinane-3-carboxamide 1,1-dioxide], the EC50 is reported as 1000 to 5000 nM.
`C=CCN1[C@@H](C(=O)Nc2ccc(F)c(Cl)c2)C[C@@H](c2nccs2)NS1(=O)=O` [HBV-CSU-094-ISO-I, Cis-2-Allyl-N-(3-chloro-4-fluorophenyl)-5-(thiazol-2-yl)-1,2,6-thiadiazinane-3-carboxamide 1,1-dioxide] showed an EC50 greater than 5000 nM.
For `CN1C(C(=O)Nc2ccc(F)c(Cl)c2)CC(c2ccc(-c3ccnn3C)s2)NS1(=O)=O` (racemic) [HBV-CSU-271, Cis-N-(3-chloro-4-fluorophenyl)-2-methyl-5-(5-(1-methyl-1H-pyrazol-5-yl)thiophen-2-yl)-1,2,6-thiadiazinane-3-carboxamide 1,1-dioxide], the EC50 was less than 1000 nM.
With `CN1[C@H](C(=O)Nc2ccc(F)c(C(F)(F)F)c2)C[C@H](c2cccs2)NS1(=O)=O` [HBV-CSU-046-ISO-I, Cis-N-(4-Fluoro-3-(trifluoromethyl)phenyl)-2-methyl-5-(thiophen-2-yl)-1,2,6-thiadiazinane-3-carboxamide 1,1-dioxide] the EC50 was less than 1000 nM.
`CN1C(C(=O)Nc2ccc(F)c(Cl)c2)CC(c2cccc(OC(F)F)c2)NS1(=O)=O` (racemic) [HBV-CSU-264, Cis-N-(3-chloro-4-fluorophenyl)-5-(3-(difluoromethoxy)phenyl)-2-methyl-1,2,6-thiadiazinane-3-carboxamide 1,1-dioxide] was tested, and the EC50 was less than 1000 nM.
Molecule `CN1C(C(=O)Nc2ccc(F)c(Cl)c2)CC(c2cc(-c3ccc(NS(C)(=O)=O)cc3)cs2)NS1(=O)=O` (stereo not drawn) [HBV-CSU-171, Cis-N-(3-chloro-4-fluorophenyl)-2-methyl-5-(4-(4-(methylsulfonamido)phenyl)thiophen-2-yl)-1,2,6-thiadiazinane-3-carboxamide 1,1-dioxide] has an EC50 of less than 1000 nM.
Molecule `CN1[C@H](C(=O)Nc2ccc(F)c(Cl)c2)C[C@H](c2ccc(F)cn2)NS1(=O)=O` [HBV-CSU-032-ISO-I, Cis-N-(3-Chloro-4-fluorophenyl)-5-(5-fluoropyridin-2-yl)-2-methyl-1,2,6-thiadiazinane-3-carboxamide 1,1-dioxide] has an EC50 of less than 1000 nM.
